Where “and” joins values, the source holds several entries; their conditions need not be identical. Equal values may be shown once.

Data on one compound can be found in article PMC6438731, “Extrasynaptic δ‐GABAA receptors are high‐affinity muscimol receptors” (Journal of Neurochemistry, 2019).

The target in assay [1] is cerebellar membranes of WT mice. Briefly: [^3H]muscimol binding kinetics, WT cerebellar membranes. Further details: species or system mouse. The protocol: (§1) WT and δKO forebrain and cerebellar membranes were prepared using a modification of the method of Squires and Saederup (2000) essentially as described by Uusi‐Oukari et al. (2014). […] forebrain along with midbrain region was homogenized into 10 mM Tris‐HCl, pH 8.0 buffer containing 2 mM EDTA, using an Ultra‐Turrax T25 (Janke & Kunkel IKA labortechnik) for 20 s at 9500 rpm. The homogenates were centrifuged at 20 000 g for 10 min at +4°C and the resulting pellets were washed three times by resuspension and re‐centrifugation with 10 mM Tris‐HCl, pH 8.5 buffer containing 0.2 M NaCl, and 5 mM EDTA. The resulting pellets were then suspended in ice‐cold H2O and centrifuged. The pellets were again washed three times with Tris, pH 8.5/NaCl/EDTA as described above. The resulting pellets were finally suspended in assay buffer consisting of 50 mM Tris‐base, pH adjusted to 7.4 with citric acid, and frozen at −70°C. Before a binding experiment, the suspension was thawed, centrifuged, and suspended in assay buffer.
(§2) The binding of [^3H]muscimol (5 nM) was measured in assay buffer at 22°C in a total volume of 300 μL. Triplicate technical replicates of mouse forebrain (190–215 μg protein), cerebellar (180–210 μg protein) or HEK cell (92–132 μg protein) membranes for each time point were incubated with shaking for various times (15 s–15 min) to measure association of the binding. […] Air‐dried filters were immersed in 3 mL of Optiphase HiSafe 3 scintillation fluid (Wallac, Turku, Finland) and radioactivity determined in a Wallac model 1410 liquid scintillation counter (Wallac, Turku, Finland). […]
(§3) The tubes were mixed and incubations at 22°C were terminated at various time points (30 s – 30 min) as described above. Dissociation of [^3H]muscimol from recombinant receptors in HEK cell membranes was also measured at 0–4°C (on ice) to evaluate how fast [^3H]muscimol dissociates from receptors while washing the filter with ice‐cold assay buffer during filtration.

Assay [2] has as its target native δ‐GABAARs in the cerebellum (WT‐δKO, α6βδ) (Mus musculus, UniProt P16305+P63137). In words: [^3H]muscimol binding kinetics, cerebellum WT‐δKO (subtracted). As to conditions: 22°C. The protocol: as §1, §2
The tubes were mixed and incubations at 22°C were terminated at various time points (30 s – 30 min) as described above. Dissociation of [^3H]muscimol from recombinant receptors in HEK cell membranes was also measured at 0–4°C (on ice) to evaluate how fast [^3H]muscimol dissociates from receptors while washing the filter with ice‐cold assay buffer during filtration. […]

Assay [3] addresses cerebellar membranes of δKO mice. Briefly: Saturation analysis of [^3H]muscimol binding, δKO cerebellar membranes. Further details: species or system mouse. The settings on record: 0°C. The protocol:
as §1
(§4) Saturation analysis of [^3H]muscimol to WT and δKO mouse forebrain and cerebellar membranes was performed essentially as described by Uusi‐Oukari and Korpi (1989). […] The incubations were terminated as described above.

In assay [4] the target is cerebellar membranes of WT mice. Briefly: Saturation analysis of [^3H]muscimol binding, WT cerebellar membranes. Further details: species or system mouse. As to conditions: 0°C. The protocol: as §1, §4
In assay [5] the target is T1, α6β2 recombinant GABAA receptor (Rattus norvegicus, UniProt P30191+P63138).
T1 construct: expressed in transfected cells; host or cells: HEK293 (ATCC CRL-1573), pRK5 plasmids, membranes
T1 sequence (P30191 20-453): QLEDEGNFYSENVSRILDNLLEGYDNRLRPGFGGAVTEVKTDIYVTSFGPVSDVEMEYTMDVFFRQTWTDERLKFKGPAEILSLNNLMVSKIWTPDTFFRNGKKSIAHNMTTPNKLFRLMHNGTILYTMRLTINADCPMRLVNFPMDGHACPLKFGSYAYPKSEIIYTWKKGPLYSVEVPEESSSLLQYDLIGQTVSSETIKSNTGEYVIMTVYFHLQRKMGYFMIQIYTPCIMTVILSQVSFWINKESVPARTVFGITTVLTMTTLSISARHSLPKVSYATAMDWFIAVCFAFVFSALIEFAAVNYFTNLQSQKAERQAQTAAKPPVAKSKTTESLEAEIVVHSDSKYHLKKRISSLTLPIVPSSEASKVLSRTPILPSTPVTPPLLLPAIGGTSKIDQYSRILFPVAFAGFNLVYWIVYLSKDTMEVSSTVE
T1 sequence (P63138 26-474): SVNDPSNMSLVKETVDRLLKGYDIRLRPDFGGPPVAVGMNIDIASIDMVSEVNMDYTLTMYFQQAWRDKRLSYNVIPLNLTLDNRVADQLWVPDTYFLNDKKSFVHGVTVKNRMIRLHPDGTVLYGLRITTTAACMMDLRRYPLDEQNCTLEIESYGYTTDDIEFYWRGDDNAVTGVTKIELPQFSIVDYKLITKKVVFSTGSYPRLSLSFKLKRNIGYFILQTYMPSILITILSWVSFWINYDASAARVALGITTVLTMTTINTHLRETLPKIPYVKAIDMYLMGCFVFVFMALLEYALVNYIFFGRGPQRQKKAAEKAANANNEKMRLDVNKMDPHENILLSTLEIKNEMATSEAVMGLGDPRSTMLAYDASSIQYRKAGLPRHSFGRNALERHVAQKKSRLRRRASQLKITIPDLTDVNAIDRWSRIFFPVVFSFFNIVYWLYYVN
In words: [^3H]muscimol binding kinetics, recombinant α6β2 in HEK293 membranes. The settings on record: room temperature (22°C).
Text: (§5) Human embryonic kidney (HEK) 293 cells (ATCC Cat# CRL‐1573; RRID: CVCL_0045; a commonly misidentified cell line by ICLAC; last authenticated by STR DNA profiling in December 2018) were transfected with rat cDNAs (α1, L08490; α6, L08495; β2, X15467; β3, X15468; γ2S, L08497; δ, L08496) in pRK5 plasmids under the control of the cytomegalovirus promoter (Uusi‐Oukari et al. 2000), using the calcium phosphate precipitation method essentially as described (Lüddens and Korpi 1997). The plasmids were used in 1 : 1 and 1 : 1 : 1 ratios for transfections containing 2 [(α1 or α6) + (β2 or β3)] or 3 [(α1 or α6) + (β2 or β3) + (γ2S or δ)] different subunits, respectively (5 μg of each plasmid DNA for a 10 cm plate). […]
The binding of [^3H]muscimol (5 nM) was measured in assay buffer at 22°C in a total volume of 300 μL. […] Air‐dried filters were immersed in 3 mL of Optiphase HiSafe 3 scintillation fluid (Wallac, Turku, Finland) and radioactivity determined in a Wallac model 1410 liquid scintillation counter (Wallac, Turku, Finland). […]
as §3

Assay [6] deals with T2, α1β2 recombinant GABAA receptor (Rattus norvegicus, UniProt P62813+P63138).
T2 construct: expressed in transfected cells; host or cells: HEK293 (ATCC CRL-1573), pRK5 plasmids, membranes
T2 sequence (P62813 28-455): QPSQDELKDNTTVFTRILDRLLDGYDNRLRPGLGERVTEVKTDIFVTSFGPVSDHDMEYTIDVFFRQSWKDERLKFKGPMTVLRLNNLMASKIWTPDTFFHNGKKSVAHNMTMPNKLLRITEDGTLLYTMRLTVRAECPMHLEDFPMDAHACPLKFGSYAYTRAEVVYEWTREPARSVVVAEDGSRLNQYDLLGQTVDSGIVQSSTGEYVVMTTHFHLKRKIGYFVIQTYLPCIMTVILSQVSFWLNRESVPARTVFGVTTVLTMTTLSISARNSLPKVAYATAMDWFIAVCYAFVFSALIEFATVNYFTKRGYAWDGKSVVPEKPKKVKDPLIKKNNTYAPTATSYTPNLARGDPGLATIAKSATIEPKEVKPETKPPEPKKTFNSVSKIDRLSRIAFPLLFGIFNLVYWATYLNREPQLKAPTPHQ
T2 sequence (P63138 26-474): as the sequence (P63138 26-474) above
Briefly: [^3H]muscimol binding kinetics, recombinant α1β2 in HEK293 membranes. As to conditions: room temperature (22°C).
Text: as §5
The binding of [^3H]muscimol (5 nM) was measured in assay buffer at 22°C in a total volume of 300 μL. […] Air‐dried filters were immersed in 3 mL of Optiphase HiSafe 3 scintillation fluid (Wallac, Turku, Finland) and radioactivity determined in a Wallac model 1410 liquid scintillation counter (Wallac, Turku, Finland).
as §3

The target in assay [7] is T3, α6β2δ recombinant GABAA receptor (Rattus norvegicus, UniProt P30191+P63138).
T3 construct: expressed in transfected cells; host or cells: HEK293 (ATCC CRL-1573), pRK5 plasmids, membranes
T3 sequence (P30191 20-453): as the sequence (P30191 20-453) above
T3 sequence (P63138 26-474): as the sequence (P63138 26-474) above
T3 sequence (P18506 25-449 partner): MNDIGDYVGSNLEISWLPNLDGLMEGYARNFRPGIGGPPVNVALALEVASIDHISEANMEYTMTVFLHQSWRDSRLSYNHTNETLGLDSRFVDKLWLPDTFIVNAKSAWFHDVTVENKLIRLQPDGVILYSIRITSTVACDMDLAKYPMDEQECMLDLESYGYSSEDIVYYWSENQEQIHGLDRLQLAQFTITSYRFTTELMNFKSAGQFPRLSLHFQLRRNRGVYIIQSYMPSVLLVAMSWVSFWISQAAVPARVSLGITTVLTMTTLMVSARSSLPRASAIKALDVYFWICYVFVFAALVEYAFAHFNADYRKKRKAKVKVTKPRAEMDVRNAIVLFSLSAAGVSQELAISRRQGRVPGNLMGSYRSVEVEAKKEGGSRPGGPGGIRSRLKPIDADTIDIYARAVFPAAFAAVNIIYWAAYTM
In words: [^3H]muscimol binding kinetics, recombinant α6β2δ in HEK293 membranes.
Text: Human embryonic kidney (HEK) 293 cells (ATCC Cat# CRL‐1573; RRID: CVCL_0045; a commonly misidentified cell line by ICLAC; last authenticated by STR DNA profiling in December 2018) were transfected with rat cDNAs (α1, L08490; α6, L08495; β2, X15467; β3, X15468; γ2S, L08497; δ, L08496) in pRK5 plasmids under the control of the cytomegalovirus promoter (Uusi‐Oukari et al. 2000), using the calcium phosphate precipitation method essentially as described (Lüddens and Korpi 1997). The plasmids were used in 1 : 1 and 1 : 1 : 1 ratios for transfections containing 2 [(α1 or α6) + (β2 or β3)] or 3 [(α1 or α6) + (β2 or β3) + (γ2S or δ)] different subunits, respectively (5 μg of each plasmid DNA for a 10 cm plate). Mock transfection was done using 5 μg pRK5 plasmid backbone. The cells were harvested 48 h after transfection. Culture medium was removed and the cells were detached from the plates by pipetting in ice‐cold assay buffer containing 2 mM EDTA. The cells were homogenized (Ultra Turrax, 20 s at 9500 rpm), the homogenates centrifuged at 20 000 g for 10 min at +4°C, and washed once with the same buffer. The homogenates were finally suspended in assay buffer (1 mL/plate) and either used directly to binding assays or stored frozen at −70°C.
The binding of [^3H]muscimol (5 nM) was measured in assay buffer at 22°C in a total volume of 300 μL. Triplicate technical replicates of mouse forebrain (190–215 μg protein), cerebellar (180–210 μg protein) or HEK cell (92–132 μg protein) membranes for each time point were incubated with shaking for various times (15 s–15 min) to measure association of the binding. […] The incubation was terminated by filtration of the samples with a Brandel Cell Harvester (model M‐24, Gaithersburg, MD, USA) onto Whatman GF/B filters (Whatman International Ltd., Maidstone, UK). The samples were rinsed twice with 4–5 mL of ice‐cold assay buffer. Filtration and rinsing steps took a total time of ~15 s. Air‐dried filters were immersed in 3 mL of Optiphase HiSafe 3 scintillation fluid (Wallac, Turku, Finland) and radioactivity determined in a Wallac model 1410 liquid scintillation counter (Wallac, Turku, Finland). The maximal binding disintegrations per minute (DPM) values (at 15 min in association) for recombinant studies with 5 nM [^3H]muscimol were between 700 and 2500 DPMs of specific binding (background subtracted). In native membranes, the maximal DPM values were between 2500 and 3000 for WTs and 1300–1500 for δKOs.
as §3

Where [8] appears, read: cerebellum WT‐δKO (native δ‐GABAARs, by subtraction).

Sequence of native δ‐GABAARs in the cerebellum (WT‐δKO, α6βδ) (P16305 20-453): as the sequence (P30191 20-453) above, with H121Q, S163T, K325T, T333A, T334S, E338Q, V371A, P379K, T384S, I392T counted along it
Sequence of native δ‐GABAARs in the cerebellum (WT‐δKO, α6βδ) (P63137 26-512): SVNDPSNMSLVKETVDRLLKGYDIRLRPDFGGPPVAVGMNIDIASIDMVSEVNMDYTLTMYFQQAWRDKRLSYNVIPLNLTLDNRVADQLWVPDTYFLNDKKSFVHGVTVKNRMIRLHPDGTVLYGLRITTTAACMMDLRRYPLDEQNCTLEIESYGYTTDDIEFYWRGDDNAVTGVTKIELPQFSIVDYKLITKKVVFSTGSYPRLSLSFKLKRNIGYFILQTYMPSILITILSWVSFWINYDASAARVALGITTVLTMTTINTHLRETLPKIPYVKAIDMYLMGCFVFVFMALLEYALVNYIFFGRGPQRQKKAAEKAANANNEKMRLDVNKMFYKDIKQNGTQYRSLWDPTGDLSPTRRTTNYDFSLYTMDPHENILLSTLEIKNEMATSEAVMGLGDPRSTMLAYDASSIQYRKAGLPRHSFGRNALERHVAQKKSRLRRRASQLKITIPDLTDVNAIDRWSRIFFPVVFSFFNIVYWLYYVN
Sequence of native δ‐GABAARs in the cerebellum (WT‐δKO, α6βδ) (P22933 25-449 partner): as the sequence (P18506 25-449 partner) above, with P38A, M149L counted along it

Turning to `NCc1cc(=O)[nH]o1` [[^3H]muscimol] [[Methylene‐^3H]muscimol], the Kd in assay [1] (22°C, K D = koff/kon) is 1.7 nM; in assay [2] (cerebellum WT‐δKO (native δ‐GABAARs, α6βδ), K D = koff/kon), ~1 nM and 1 nM; in assay [7] (α6β2δ in HEK293 membranes, 22°C, K D = koff/kon), 1.3 nM. For the same compound, the k off in assay [1] (room temperature (22°C)) was 0.00783 ± 0.00233 s⁻¹; in assay [2] (setting [8]), 0.002 ± 0.0005 s⁻¹; in assay [5], 1.46 ± 0.05 ^††† min^−1; in assay [6], 0.49 ± 0.07 ^### min^−1; in assay [7] (α6β2δ in HEK293 membranes, +4 °C), 0.015 ± 0.003 ^*** min^−1; in assay [7] (α6β2δ in HEK293 membranes, room temperature (22°C)), 0.13 ± 0.03 ^### min^−1. In addition, the k on in assay [1] (room temperature (22°C), 5 nM [^3H]muscimol) is 2.8 ± 0.2 × 10^8 M^−1 × min^−1; in assay [2] (setting [8]) it was 1.2 ± 0.2 × 10^8 M^−1 × min^−1; in assay [7] (α6β2δ in HEK293 membranes, room temperature (22°C), 5 nM [^3H]muscimol), 1.0 ± 0.1 × 10^8, ^### M^−1 × min^−1. The “Apparent pKD” value was 8.15 ± 0.02 in assay [3] and 8.34 ± 0.01 in assay [4]. Besides, in assay [7] (α6β2δ vs α1β2γ2 and α6β2γ2, 22°C), the “association rate constant kon lower when compared to γ2‐GABAARs” value is reported as 6.3–11 fold. Also, in assay [7] (α6β2δ, 0°C, 30 min after start of the dissociation), the “[^3H]muscimol still remaining bound” value was 70%.
